Reference: patent US10501435B2, “Substituted quinazoline compounds and uses thereof for modulating glucocerebrosidase activity” (Northwestern University, priority 2015, dated 2019)
Entries after “also recorded” stand apart in the source; their conditions may differ.

What was measured:
α-galactosidase A (GLA) = α-galactosidase A (GLA) (Homo sapiens (Human), UniProt P06280); test: Enzyme selectivity assay, α-galactosidase A; format: biochemical; settings: compound treatments up to 100 μM, pH 4.8
Text: (§1) 4-Methylumbelliferyl β-D-glucopyranoside (4MU-β-Glc), 4-methylumbelliferyl α-D-glucopyranoside, 4-methylumbelliferyl α-D-galactopyranoside, and buffer components were purchased from Sigma-Aldrich (St. Louis, Mo.). The recombinant wild-type GCase enzyme velaglucerase alfa (Vpriv®, Shire Human Genetic Therapies, Inc.), acid α-glucosidase enzyme alglucosidase alfa (Lumizyme®, Genzyme Corporation), α-galactosidase A enzyme agalsidase beta (Fabrazyme®, Genzyme Corporation) were used in activity assays. The GCase activity assay buffer was composed of 50 mM citric acid, 176 mM K2HPO4, and 0.01% Tween-20 at pH5.0, pH 5.9 and pH7.0. A solution of 1 M sodium hydroxide and 1 M glycine (pH 10) was used as the stop solution for all three enzyme activity assays.
(§2) Enzyme Selectivity Assays. The acid α-glucosidase and α-galactosidase A enzyme activity assay methods were similar to the GCase enzyme activity assay above with slight modifications. The buffer for the two enzyme assays consisted of 50 mM citric acid, 176 mM K2HPO4, and 0.01% Tween-20 at pH 4.8. The final enzyme concentrations for acid α-glucosidase and α-galactosidase A were 8 and 1 nM, respectively. The substrate concentrations for these related enzymes were at 0.16 and 0.4 mM, respectively.

acid α-glucosidase (GAA) = acid α-glucosidase (GAA) (Homo sapiens (Human), UniProt P10253); test: Enzyme selectivity assay, acid α-glucosidase; format: biochemical; settings: compound treatments up to 100 μM, pH 4.8
Text: as §1, §2

wild-type GCase [1] = molecular target: T1, wild-type GCase (Homo sapiens (Human), UniProt P04062); test: Fluorescent thermal shift assay; format: binding; settings: pH 5.0, 0.5 to 200 μM
Text: Compounds shown to act as pharmacological chaperones for GCase (or other lysosomal enzymes) also stabilize the enzyme against thermal denaturation. A fluorescent thermal shift assay was developed to evaluate the binding affinity of ligands with protein^30. […] The maximum thermal shift of these compounds corresponded to their inhibitory activity at pH 5.0.
Fluorescence Thermal Shift Analysis^31. A robotic pipeline in the High Throughput Analysis Laboratory (HTAL) was used for protein ligand screening by fluorescence thermal shift (FTS) analysis. The pipeline used a Mosquito robot (TTP Labtech) for protein dispensing and an Echo 550 (Labcyte) to add compounds. Thermal scanning coupled with fluorescence detection was performed on a real-time PCR machine CFX384 (Bio-Rad Laboratories). The assay was run in 384-well PCR plates, using 10 μL citric acid/K2HPO4 buffer (50 mM citric acid, 150 mM K2HPO4, pH 5.0) per well. The assay concentration for protein was 1 μM and that for Sypro Orange (Invitrogen) was 5×. Protein was premixed with Sypro Orange and dispensed to a plate first, and compounds were added. Final concentrations of compounds ranged from 0.5 to 200 μM. Then the plate was sealed with an optical seal, shaken, and centrifuged. The thermal scan was from 10 to 95° C. with a temperature ramp rate of 1.5° C./min. The fluorescence was recorded every 10 sec. Data analysis and report generation were performed using the in-house software excelFTS.

wild-type GCase [2] = molecular target: T1, wild-type GCase; test: GCase enzyme activity assay (4MU-β-Glc substrate, no taurocholate); format: biochemical; settings: for change of inhibitory activity at pH 5.0 and pH 7.0 compared to pH 5.9: both pH conditions
Experimental: In previous studies, high concentrations of taurocholate (4-10 mM) were used to improve the signal in GCase enzyme activity assays^16,27,28. […] Here we describe our modifications of the substituents on the quinazoline ring.
as §1, with “The GCase activity assay buffer was composed of 50 mM citric acid, 176 mM K2HPO4, and 0.01% Tween-20 at pH5.0, pH 5.9 and pH7.0.” left out
GCase Enzyme Activity Assay. The compounds in DMSO solution (0.5 μL/well) were transferred to a black 96-well plate (the final titration started from 100 μM, a 12 or 24-point 2-fold dilution series). […] After 5 min of incubation at room temperature, the enzyme reaction was initiated by the addition of blue substrate (4MU-β-Glc) (33 μL/well). The final concentration of the blue substrate was 1.5 mM. The blue substrate reaction was terminated by the addition of 33 μL/well stop solution (1 M NaOH and 1 M glycine mixture, pH 10) after 30 min of incubation at 37° C. […] The selected compounds were further assayed under pH 5.0 and pH 7.0 to evaluate their selectivity under various pH conditions.

N370S mutant GCase [3] = molecular target: T2, N370S mutant GCase (Homo sapiens (Human), UniProt P04062, N370S); test: GCase protein levels by Western blot in patient N370S fibroblasts; format: cell-based; settings: 3-day treatment, 0.2 μM and 2 μM
Experimental: (§3) N370S Cell Culture and Compound Treatment. The N370S fibroblast cell line was obtained from Coriell, GM00372, cultured in DMEM medium (Life Tech) including 1% v/v L-glutamine 200 mM (Life Tech), 1% v/v pen strep (Life Tech), 10% FBS (Life Tech) at 37° C. and 5% CO2 and treated with different compounds at 0.2 μM and 2 μM. After a 3-day treatment, cells were washed with inhibitor free media 3 times and fed with inhibitor free media for 1 day, followed by 1% Triton X-100 lysis buffer to lyse cells. Protein concentrations were measured with a Bradford kit (Thermo), and the GCase activity was determined at pH 5.5.
Western Blot. Proteins were denatured in 20% SDS sample buffer at 100° C. for 10 min; 10% Bis-Tris gel (Life Tech) was used for gels; Trans-Blot Turbo PVDF kit (Bio-Rad) was used for membrane transfer, and Chemidoc MP system (Bio-Rad) was used to analyze the blots.

N370S mutant GCase [4] = molecular target: T2, N370S mutant GCase; test: GCase activity assay in patient N370S fibroblasts; format: cell-based; settings: 3-day treatment, activity determined at pH 5.5
Experimental: as §3

GCase = GCase (Homo sapiens (Human), UniProt P04062); test: Enzyme kinetic assay (Lineweaver-Burk, resorufin β-D-glucopyranoside); format: biochemical; settings: substrate 30-150 μM, increasing inhibitor concentrations
Experimental: We further tested compounds 4 and 11g by measuring GCase activity at various substrate concentrations (30-150 μM) and in the absence or presence of increasing concentrations of GCase inhibitors.
Enzyme Kinetic Assay. The substrate resorufin β-D-glucopyranoside was diluted to five concentrations, ranging from 30 to 150 μM. Seven concentrations of inhibitors (between 0.5- and 5-fold of IC50 value) and a DMSO control were added to the enzyme solution. The final enzyme concentration was 10 nM to give a linear reaction over 10 min. Enzyme kinetics were measured by the addition of 66 μL of substrate to a 96-well assay plate, followed by 33 μL of enzyme solution (with or without inhibitor) using a dispense module on a Biotek Synergy H1 multi-mode plate reader. The increase in product fluorescence was measured at 1 min intervals for 10 min in the plate reader. The rate of product formation was calculated by converting the fluorescence units to nanomoles of product per minute using a standard curve of the free fluorophore, resorufin.

T2 sequence (P04062 40-536 N409S): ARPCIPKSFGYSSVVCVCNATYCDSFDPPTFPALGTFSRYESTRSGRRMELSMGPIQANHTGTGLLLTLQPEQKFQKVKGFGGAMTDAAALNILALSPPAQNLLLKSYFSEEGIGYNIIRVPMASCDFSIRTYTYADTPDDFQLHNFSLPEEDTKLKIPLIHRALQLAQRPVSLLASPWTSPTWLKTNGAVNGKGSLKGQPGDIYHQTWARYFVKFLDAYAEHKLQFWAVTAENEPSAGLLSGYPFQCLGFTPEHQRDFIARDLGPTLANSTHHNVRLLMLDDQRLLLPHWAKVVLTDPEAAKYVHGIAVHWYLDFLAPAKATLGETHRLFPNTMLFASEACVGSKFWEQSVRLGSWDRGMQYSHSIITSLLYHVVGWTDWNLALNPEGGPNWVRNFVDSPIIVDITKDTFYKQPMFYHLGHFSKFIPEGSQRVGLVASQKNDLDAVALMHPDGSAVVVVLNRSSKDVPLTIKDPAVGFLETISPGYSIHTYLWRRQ
α-galactosidase A (GLA), sequence (P06280 32-429): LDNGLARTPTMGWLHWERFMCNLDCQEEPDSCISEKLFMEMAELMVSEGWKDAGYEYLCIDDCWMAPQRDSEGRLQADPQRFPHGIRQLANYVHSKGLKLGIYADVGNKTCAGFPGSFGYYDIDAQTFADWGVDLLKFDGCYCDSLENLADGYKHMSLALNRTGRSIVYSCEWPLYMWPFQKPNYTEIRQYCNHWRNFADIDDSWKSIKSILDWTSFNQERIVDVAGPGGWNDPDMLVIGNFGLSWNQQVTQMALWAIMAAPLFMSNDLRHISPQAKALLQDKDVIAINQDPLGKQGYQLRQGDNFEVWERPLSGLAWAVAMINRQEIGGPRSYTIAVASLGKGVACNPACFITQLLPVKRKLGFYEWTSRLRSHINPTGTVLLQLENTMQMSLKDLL
T1 sequence (P04062 40-536): as the sequence (P04062 40-536 N409S) above, with S370N counted along it
GCase, sequence (P04062 40-536): as the sequence (P04062 40-536 N409S) above, with S370N counted along it

For `c1cncc(-c2nc(NC3CCc4ccccc4C3)c3ccccc3n2)c1` (single isomer, unassigned) [Compound 9a], the “α-galactosidase A (GLA) activity” value (α-galactosidase A (GLA)) was “not significantly changed”, the “acid α-glucosidase (GAA) activity” value (acid α-glucosidase (GAA)) was “not significantly changed” and the “stabilization of wild-type GCase / change of GCase melting point” value (wild-type GCase [1]) was “stabilize wild-type GCase in a dose-dependent manner; also recorded: increased the GCase melting point in a dose-dependent manner”.

For `c1ccc(Nc2nc(-c3cccnc3)nc3ccccc23)cc1` [Compound 8a], the “stabilization of wild-type GCase / change of GCase melting point” value (wild-type GCase [1]) was “did not change the melting points significantly” and the “inhibitory activity against GCase (in words)” value (wild-type GCase [2]) was “lost activity”.

In the case of `c1cncc(-c2nc(N[C@@H]3CCc4ccccc4C3)c3ccccc3n2)c1` [Compound 9b], the “stabilization of wild-type GCase / change of GCase melting point” value (wild-type GCase [1]) is reported as “stabilize wild-type GCase in a dose-dependent manner; also recorded: increased the GCase melting point in a dose-dependent manner” and the “decrease of inhibitory activity at pH 5.0 compared to pH 5.9” value (wild-type GCase [2]; pH 5.0 vs pH 5.9) is reported as 3 fold.

With `c1ccc(-c2nc(NC3Cc4ccccc4C3)c3ccccc3n2)cc1` [Compound 11d, N-(2,3-dihydro-1H-inden-2-yl)-2-phenylquinazolin-4-amine] the “α-galactosidase A (GLA) activity” value (α-galactosidase A (GLA)) was “not significantly changed”, the “concentration of GCase (protein level, Western blot)” value (“concentration of GCase” below) (N370S mutant GCase [3]) was “significantly increased” and the “acid α-glucosidase (GAA) activity” value (acid α-glucosidase (GAA)) was “not significantly changed”. The “stabilization of wild-type GCase / change of GCase melting point” value (wild-type GCase [1]) was “stabilize wild-type GCase in a dose-dependent manner; also recorded: increased the GCase melting point in a dose-dependent manner”.

`c1csc(-c2nc(NC3Cc4ccccc4C3)c3ccccc3n2)c1` [Compound 11f, N-(2,3-dihydro-1H-inden-2-yl)-2-(thiophen-2-yl)quinazolin-4-amine] was tested, and the “α-galactosidase A (GLA) activity” value (α-galactosidase A (GLA)) was “not significantly changed”, the “concentration of GCase” value (N370S mutant GCase [3]) was “significantly increased” and the “acid α-glucosidase (GAA) activity” value (acid α-glucosidase (GAA)) was “not significantly changed”. The “stabilization of wild-type GCase / change of GCase melting point” value (wild-type GCase [1]) was “stabilize wild-type GCase in a dose-dependent manner; also recorded: increased the GCase melting point in a dose-dependent manner” and the “change of inhibitory activity at pH 5.0 and pH 7.0 compared to pH 5.9” value (wild-type GCase [2]) was “only dropped slightly”.

For `c1ccc2c(c1)CC(Nc1nc(-c3ccsc3)nc3ccccc13)C2` [Compound 11g, N-(2,3-dihydro-1H-inden-2-yl)-2-(thiophen-3-yl)quinazolin-4-amine], the “GCase activity in patient cells” value (N370S mutant GCase [4]) was “increased GCase activity”, the “α-galactosidase A (GLA) activity” value (α-galactosidase A (GLA)) was “not significantly changed” and the “type of inhibition (Km, Vmax)” value (GCase) was “linear mixed inhibition”. For the same compound, the “concentration of GCase” value (N370S mutant GCase [3]) was “significantly increased”, the “acid α-glucosidase (GAA) activity” value (acid α-glucosidase (GAA)) was “not significantly changed” and the “stabilization of wild-type GCase / change of GCase melting point” value (wild-type GCase [1]) was “stabilize wild-type GCase in a dose-dependent manner; also recorded: increased the GCase melting point in a dose-dependent manner”. For the same compound, the “change of inhibitory activity at pH 5.0 and pH 7.0 compared to pH 5.9” value (wild-type GCase [2]) was “only dropped slightly”.

With `OC[C@H]1CNC[C@@H](O)[C@@H]1O` [IFG, Isofagomine, reference compound] the “GCase activity in patient cells” value (N370S mutant GCase [4]) was “had no effect”, the “concentration of GCase” value (N370S mutant GCase [3]) was “did not have an effect” and the “stabilization of wild-type GCase / change of GCase melting point” value (wild-type GCase [1]) was “stabilize wild-type GCase in a dose-dependent manner”.
